Test results taken from patent US6083941A, “Inhibition of NMDA receptor activity by pregnenolone sulfate derivatives” (Trustees of Boston University, priority 1998, dated 2000).
In brackets after ≈: the same amount, converted by molar mass. Counter-ions that a name gives are not always drawn. Like-named read-outs stand apart in the source and are kept apart here.

Experiments:
NMDA receptor = assay: Whole cell patch clamp, NMDA-induced current in cultured chick spinal cord neurons; assay type: cell-based; settings: for inhibition of the NMDA response by extracellular steroid: 100 μM extracellular; for IC50: read-out: IC50 for inhibition of the NMDA response
Procedure: (§1) Cultures of dissociated spinal cord neurons were prepared as previously described (Farb, D. H., et al., J. Cell Biol., 80:651-661 (1979)). Briefly, the dissociated cells from 7-day chick embryos were plated on collagen-coated 35-mm tissue culture dishes in Eagle's minimum essential medium supplemented with 2.4 mM glutamine, 10% (v/v) heat-inactivated horse serum, 5% (v/v) chick embryo extract and antibiotics. Cultures were maintained in a humidified atmosphere of 5% CO2, 95% air at 37°. Cytarabine (1 μM) was added to the culture medium after 36 hr. of the initial plating to inhibit the proliferation of non-neuronal cells. One day later, this medium was replaced with a similar medium supplemented with 20.5 mM glucose, 19 mM KCl, and 2.5% chick embryo extract. Fresh medium was added twice weekly. Cultured neurons were used in experiments within 2-4 weeks after plating.
Experiments were carried out in 35-mm tissue culture dishes on the stage of an inverted phase contrast microscope. Whole cell currents were recorded by the whole cell variant of the patch clamp technique (Hamill, O. P., et al., Pfagers Arch. 891:85-100 (1981)). Patch electrodes had tip openings of about […] and resistances of 3-8 M.OMEGA. using an intracellular solution comprised of the following (in mM): 140 CsCl, 11 EGTA, and 10 HEPES (pH adjusted to 7.2 with CsOH). In experiments in which a high concentration of glycine was used, the intracellular solution was replaced with a low chloride (10 mM) pipette solution. This solution contained the following (in mM): 140 potassium gluconate, 10 KCl, 8 sodium gluconate, 11 EGTA, and 10 HEPES (pH adjusted to 7.2 with KOH). To prevent a marked run-down of NMDA-induced current at high NMDA concentrations, 4 mM potassium ATP was included in the intracellular solution. The bath solution contained the following (in mM): 150 NaCl, 4 KCl, 1 CaCl2, and 10 HEPES (pH adjusted to 7.2 with NaOH). No glycine was added to the solutions containing NMDA, because no additional glycine was required to obtain a robust NMDA response, and there was no effect of a maximal concentration (10 μM) of glycine on 5β3αS inhibition of the NMDA response. All experiments were performed at room temperature (23-25° C.).
Recordings were made using an Axopatch 1B patch clamp apparatus (Axon Instruments, Burlingame, Calif.). Cells with series resistances greater than 10 M.OMEGA. were rejected. After partial compensation, series resistances were between 3.5 and 6 M.OMEGA.. The holding potential was maintained at -70 mV unless otherwise noted. Currents were filtered at 1 kHz using an eight-pole Bessel filter (-3 dB) and digitized ([…]) using an on-line data acquisition system (pClamp, Axon Instruments).
Drug solutions were applied to single neurons by pressure ejection (15 psi) from seven-barrel pipettes. Seven-barrel pressure pipettes were positioned approximately […] from the neuronal soma. Under these conditions, the drug solution in the pressure pipette rapidly and effectively replaces the solution surrounding the target neurons with less than 10% dilution (Choi, D. W., et al., Nature (Lond.) 269:342-344 (1977); Chan, C. Y., et al., Life Sci., 83:2061-2069 (1983); Chan, C. Y. and Farb, D. H., J. Neurosci., 5:2365-2373 (1985)). All drugs were obtained from Sigma, with the except of AMPA hydrobromide (Research Biochemicals) and steroids (Steraloids). Stock solutions of steroids were prepared in dimethyl sulfoxide, the final concentration of which was 0.5% (v/v). To obviate the possible effects of dimethyl sulfoxide on the relevant agonist-induced currents, all other drug solutions including NMDA, kainate, AMPA and external buffer (in the pressure pipette) also contained 0.5% dimethyl sulfoxide. […]

[1] = Maximal solubility in the external buffer; assay type: physicochemical; settings: pH 7.2, aqueous buffer, 0.5% dimethyl sulfoxide
kainate receptors = assay: Whole cell patch clamp, kainate-induced current in cultured chick spinal cord neurons; assay type: cell-based; settings: 100 μM steroid; -70 mV
Procedure: as §1
(§2) Experiments were carried out in 35-mm tissue culture dishes on the stage of an inverted phase contrast microscope. Whole cell currents were recorded by the whole cell variant of the patch clamp technique (Hamill, O. P., et al., Pfagers Arch. 891:85-100 (1981)). Patch electrodes had tip openings of about […] and resistances of 3-8 M.OMEGA. using an intracellular solution comprised of the following (in mM): 140 CsCl, 11 EGTA, and 10 HEPES (pH adjusted to 7.2 with CsOH). […]

AMPA receptors = assay: Whole cell patch clamp, AMPA-induced current in cultured chick spinal cord neurons; assay type: cell-based; settings: 100 μM steroid; -70 mV
Procedure: as §1, §2

[2] = target: T1, recombinant NMDA receptors (NR1100 and NR2A subunits) (Rattus norvegicus, UniProt P35439+Q00959); assay: Two electrode voltage-clamp of Xenopus oocytes expressing recombinant NMDA receptors; assay type: cell-based
T1 construct: expressed in transfected cells; host or cells: Xenopus laevis oocytes injected with in vitro transcribed mRNA
T1 sequence (Q00959 23-1464, other chains not shown): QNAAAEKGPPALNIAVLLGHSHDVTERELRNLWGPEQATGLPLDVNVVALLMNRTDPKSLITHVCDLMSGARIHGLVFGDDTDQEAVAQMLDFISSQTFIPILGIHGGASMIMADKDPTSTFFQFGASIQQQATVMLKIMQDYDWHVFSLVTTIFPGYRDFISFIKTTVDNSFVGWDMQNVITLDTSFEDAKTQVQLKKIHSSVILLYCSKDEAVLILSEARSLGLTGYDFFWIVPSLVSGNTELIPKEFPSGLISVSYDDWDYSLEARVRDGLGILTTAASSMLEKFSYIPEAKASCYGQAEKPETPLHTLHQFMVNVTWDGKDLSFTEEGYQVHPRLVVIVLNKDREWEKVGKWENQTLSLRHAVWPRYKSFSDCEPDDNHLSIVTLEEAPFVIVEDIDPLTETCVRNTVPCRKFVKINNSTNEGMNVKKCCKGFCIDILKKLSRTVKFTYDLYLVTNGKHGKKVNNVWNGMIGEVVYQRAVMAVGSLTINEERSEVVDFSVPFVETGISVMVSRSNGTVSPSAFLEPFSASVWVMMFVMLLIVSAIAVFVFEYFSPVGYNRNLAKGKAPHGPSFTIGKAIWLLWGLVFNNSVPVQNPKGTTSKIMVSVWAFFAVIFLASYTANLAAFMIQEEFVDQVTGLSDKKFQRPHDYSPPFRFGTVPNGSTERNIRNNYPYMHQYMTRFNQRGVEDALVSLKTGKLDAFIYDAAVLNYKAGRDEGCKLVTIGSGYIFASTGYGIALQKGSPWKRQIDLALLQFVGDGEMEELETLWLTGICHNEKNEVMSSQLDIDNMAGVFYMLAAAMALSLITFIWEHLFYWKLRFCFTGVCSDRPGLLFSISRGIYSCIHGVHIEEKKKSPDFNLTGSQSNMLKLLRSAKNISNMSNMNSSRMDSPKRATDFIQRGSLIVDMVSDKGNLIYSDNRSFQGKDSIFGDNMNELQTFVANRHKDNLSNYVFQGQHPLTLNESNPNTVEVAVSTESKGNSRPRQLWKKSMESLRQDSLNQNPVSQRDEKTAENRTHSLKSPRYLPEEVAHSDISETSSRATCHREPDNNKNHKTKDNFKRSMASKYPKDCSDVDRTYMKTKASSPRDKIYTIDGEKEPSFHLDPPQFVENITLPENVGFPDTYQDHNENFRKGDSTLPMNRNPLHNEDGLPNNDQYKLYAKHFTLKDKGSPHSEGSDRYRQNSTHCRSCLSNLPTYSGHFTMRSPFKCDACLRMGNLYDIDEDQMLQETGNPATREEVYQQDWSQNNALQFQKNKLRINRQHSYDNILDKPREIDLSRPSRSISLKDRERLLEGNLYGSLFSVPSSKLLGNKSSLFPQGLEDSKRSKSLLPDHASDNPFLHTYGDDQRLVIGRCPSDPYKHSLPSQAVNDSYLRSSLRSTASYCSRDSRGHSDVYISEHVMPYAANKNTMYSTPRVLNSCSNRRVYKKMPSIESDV
Procedure: RNA preparation. mRNA were prepared through in vitro transcription of NR1100 and NR2A cDNAs using the mMessage mMachine kit (Ambion, Tex.). NR1100 and NR2A clones were kindly provided by Dr. Zukin and Dr. Nakanishie.
Xenopus expression system. Female, oocyte positive Xenopus laevis frogs were purchased from Nasco, Inc. (WI). The frogs were kept on a 12/12 light-dark cycle and maintained on a diet of chopped calf liver every 3 days. Prior to surgery, frogs were anesthetized in a 0.15% Tricaine solution (Sigma, Mo.) for 30-45 minutes. Ovarian sections containing the follicular oocytes were removed through a lateral abdominal incision and were immediately placed in calcium-free ND96 solution (in mM):96 NaCl; 1 MgCl2; 2 KCl; 5 Hepes; 2.5 pyruvate (pH adjusted to 7.4 with NaOH). Following a 2 hr. incubation in 0.2% collagenase type II (Sigma, Mo.) at room temperature, individual defolliculated oocytes were transferred into 60×15 mm glass petri dishes containing ND96 solution (in mM): 96 NaCl; 1 MgCl2; 2 KCl; 1.8 CaCl2; 5 Hepes; 2.5 pyruvate (pH adjusted to 7.4 with NaOH). The isolated oocytes were maintained in an incubator at 18° C. On the following date, batches of 20-40 selected oocytes (Dumont stage V and VI) were injected with 50 nl of prepared RNA solution (0.5 ng of NR1 and 12 ng of NR2A mRNAs per oocyte) using an electronic microinjector (Drummond, Pa.). The injected oocytes were used for electrophysiological experiments following 4-10 day incubation at 18° C.
Electrical recording and drug application. The ion current recordings were obtained in two electrodes voltage-clamp mode using an Axoclamp-2A amplifier (Axon Instruments, Inc., CA). The microelectrodes were fabricated with a programmed puller (Sutter Instrument Co., CA) from glass capillaries (Dagan, Minn.) and filled with 3M KCl solution. The resistance of filled microelectrodes was in the range of 2.5-3.5 M.OMEGA.. The oocytes were clamped at a holding potential of -70 mV. The membrane current was filtered at 500 Hz and sampled at 100 Hz frequency. The drugs were applied using a gravity driven external perfusion system. The data acquisition and external perfusion control were done using SuperScopeII software package (GW Instruments, MA). All experiments were performed at room temperature of 22-24° C.
The degree of modulation of the amino acid response by steroids, the percent change, was defined at (I'/I-1)×100%, where I and I' are respectively the agonist-induced currents in the absence and presence of steroid. Throughout, results are expressed as mean±SEM; statistical comparison of groups was carried out using Student's t test.

mice = assay: Behavioral observational assessment after i.p. steroid; assay type: in vivo; settings: 25 mg/kg i.p., 30 min. after injection
Procedure: To test for behavioral effects, PS, 5β3αS, 5β3αHS, βE2 (17)HS, or βE2 (3)HS (7 mg/ml in DMSO) was administered to mice i.p. at 25 mg/kg (5 animals per drug group). Behavioral assessments were made 30 min. after injection using a comprehensive observational assessment of motor-affective responses, sensory-motor responses, posture, muscle tone, equilibration, CNS excitation, and autonomic function (Irwin, R. P., et al., NeuroSci. Lett., 141:30-44 (1968)). […] The latency to loss of righting reflex was 2.5±0.5 min., and the latency to regain the righting reflex was 83±11 min. The rapidity of onset argues that 5β3αHS readily crosses the blood brain barrier.

[3] = system: NMDA-induced seizure and death in mice; assay: NMDA-induced seizure and death (100 mg/kg NMDA challenge); assay type: in vivo; settings: steroid 25 mg/kg i.p., DMSO 50%
Procedure: 5β3αHS (25 mg/kg, i.p.) protects mice from NMDA-induced death. None of the steroids tested altered the latency to NMDA-induced seizure. However, 100% of the animals that received 5β3αHS survived the 100 mg/kg NMDA challenge compared to 50% for DMSO, 75% for 5β3αS and E2 (3)HS, and 50% for E2 (17)HS.

[4] = system: NMDA-induced convulsion and mortality in mice; assay: NMDA-induced convulsion test (200 mg/kg NMDA); assay type: in vivo; settings: mice, i.v. administration, FIG. 8
Procedure: Male CD-1 mice (Charles River Laboratories, Wilmington, Mass.) weighing 20-25 g were used for the NMDA-induced convulsion test. Mice were injected intraperitoneally with the test compound dissolved in DMSO or with vehicle. NMDA (200 mg/kg, i.p.) was injected either 2 minutes after intravenous injection of test compound or 20 minutes after intraperitoneal injection of test compound.

[5] = 200 μM steroid in the absence of PS
[6] = 200 μM steroid in the presence of 200 μM PS

Q: With `CC(=O)[C@H]1CC[C@H]2[C@@H]3CC[C@@H]4C[C@H](O)CC[C@]4(C)[C@H]3CC[C@]12C` [5β3α, reference compound] as the molecule, how does the “potentiation of the 30 μM NMDA-induced current” value (NMDA receptor; 50 μM nonsulfated steroid) read?
A: 3.6±8.4%

Q: What about the “effect on the NMDA response” value (NMDA receptor; 60 μM nonsulfated steroid) of the same molecule?
A: does not produce any significant effect

Q: What about the solubility [1] of the same molecule?
A: 50 µM (≈ 15.9 µg/mL)

Q: Which results are given for `CC(=O)[C@H]1CC[C@H]2[C@@H]3CC[C@@H]4C[C@@H](OS(=O)(=O)O)CC[C@]4(C)[C@H]3CC[C@]12C` [5β3βS, 3β-hydroxy-5β-pregnan-20-one sulfate]?
A: inhibition of the NMDA response by extracellular steroid (NMDA receptor; in the absence of intracellular 5β3βS): 48±4%; inhibition of the NMDA response by extracellular steroid (NMDA receptor; in the presence of intracellular 5β3βS): 44±4%; inhibition of the response to 30 μM NMDA (NMDA receptor; 100 μM steroid applied with NMDA, holding potential -70 mV): 59%; inhibition of the 30 μM NMDA response with saturating glycine (NMDA receptor; 100 μM steroid, 10 μM glycine): did not significantly differ from that measured without added glycine; average inhibition of the NMDA response (NMDA receptor; 100 μM steroid, CsCl-containing intracellular solution, 2 cells): 49±5.0%; inhibition of the NMDA response (NMDA receptor; 100 μM steroid, in the presence of 100 μM spermine): 50±5%; inhibition of the peak NMDA response (NMDA receptor; [5]): 59±3%; effect of intracellular steroid on NMDA-induced currents (NMDA receptor; 200 μM steroid in the intracellular buffer): does not inhibit the NMDA-induced currents; inhibition of the peak NMDA response (NMDA receptor; [6]): 50±4%; inhibition of the NMDA response (NMDA receptor; after NEM treatment): 53±5%; inhibition of the NMDA response (NMDA receptor; in the presence of arachidonic acid): 49±5%; IC50 (NMDA receptor; in the absence of PS): 143 µM; IC50 (NMDA receptor; in the presence of 200 μM PS): 120 µM; direct response to steroid applied alone (NMDA receptor; steroid alone at greater than or equal to 100 μM, K+ current, not seen with CsCl intracellular solution): often induced a small outward current; inhibition of the 50 μM kainate-induced current (kainate receptors): 33%; inhibition of the 25 μM AMPA-induced current (AMPA receptors): 43%; inhibition of a near maximal NMDA response (200 μM) ([2]; 200 μM steroid): 54±8%; inhibition of the peak NMDA response [2, 5]: 46±8%; inhibition of the peak NMDA response [2, 6]: 54±5%; IC50 ([2]; IC50, in the absence of PS): 151 µM; IC50 ([2]; IC50, in the presence of 200 μM PS): 124 µM

Q: Which “behavioral assessment” value (mice) does the source give for `C[C@]12CC[C@@H]3c4ccc(OC(=O)CCC(=O)O)cc4CC[C@H]3[C@@H]1CC[C@@H]2O` [17βE(3)HS, 17β-estradiol-3-hemisuccinate] here?
A: very minor behavioral impairment

Q: What about the “animals that survived the 100 mg/kg NMDA challenge” value [3] of the same molecule?
A: 75%

Q: What about the “seizures and mortality induced by NMDA” value [4] of the same molecule?
A: effective in blocking seizures and mortality

Q: For `C[C@]12CC[C@@H]3c4ccc(O)cc4CC[C@H]3[C@@H]1CC[C@@H]2OC(=O)CCC(=O)O` [17βE(17)HS, 17β-estradiol-17-hemisuccinate], which “behavioral assessment” value (mice) is on record?
A: very minor behavioral impairment

Q: What about the “animals that survived the 100 mg/kg NMDA challenge” value [3] of the same molecule?
A: 50%

Q: What about the “seizures and mortality induced by NMDA” value [4] of the same molecule?
A: effective in blocking seizures and mortality
